# Measurements taken from patent US20260176262A1, “KRAS INHIBITORS, PREPARATION METHOD THEREFOR, AND PHARMACEUTICAL USE THEREOF” (ABBISKO THERAPEUTICS CO., LTD., priority 2021, published 2026).
# Read-outs that look alike come from different tables or passages of the source.
# Tests used:
# AGS cell = experiment: Anti-proliferative 2D CTG assay, AGS cells; assay type: cell-based; details: Homo sapiens, 72 h
# How it was run: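 Cells seeded at 1000/well overnight, then treated with 10-point 1:5 dilutions ([…], 0.1% DMSO) for 3 days at 37° C. Viability read by CellTiter-Glo luminescence; % inhibition versus HPE/ZPE controls, IC50 from four-parameter fit.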
# in vivo = details: male, ICR, mouse, po, 10 mg/kg
# Experimental: (§1) ICR mice male N=3 original source: Shanghai Sippr-Bk Lab Animal Co., Ltd.
# (§2) Single oral (PO) administration in ICR mice: The compounds were weighed and added to the solvent of 0.5% CMC+1% Tween 80 respectively, well shaken, and ultrasonicated to get a light yellow suspension. 3 mice were administered orally after fasting overnight. The dose was 10 mg/kg.
# (§3) About 90 μL/timepoint blood was collected through the orbital cavity, anticoagulated with sodium heparin, placed on ice after collection, and centrifuged to separate the plasma within 1 hour (centrifugation conditions: 8000 rpm, 6 m 2-8C). The blood collection timepoints were 0, 0.25, 0.5, 1, 2, 4, 6, 8 and 24 h. The samples were stored in a −20° C. refrigerator.
# (§4) The plasma sample was 40 μL, 160 μL of ice-cold acetonitrile containing internal standard was added, vortexed for 1 minute, and centrifuged at 18,000 rpm for 10 minutes. The supernatant was transferred to a 96-well plate, and 5 μL was injected into LC-MS/MS for analysis.
# [1] = Pharmacokinetic experiment in mice; details: male, ICR, mouse, plasma
# Experimental: as §1, §2, §3, §4
# KRAS^G12D/cRAF = KRAS^G12D/cRAF (Homo sapiens, UniProt P01116, G12D); experiment: KRAS G12D/cRAF binding test (Alphalisa); details: His-tagged KRAS G12D + GMPPNP, GST-tagged cRAF
# Chain of KRAS^G12D/cRAF (P01116 1-188 isoform P01116-2 G12D): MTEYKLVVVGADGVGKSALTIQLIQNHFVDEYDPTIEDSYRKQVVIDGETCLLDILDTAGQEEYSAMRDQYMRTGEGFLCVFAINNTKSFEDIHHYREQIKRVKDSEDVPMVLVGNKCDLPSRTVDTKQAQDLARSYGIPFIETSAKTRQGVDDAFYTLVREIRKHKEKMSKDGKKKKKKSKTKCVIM
# How it was run: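 His-tagged KRAS G12D loaded with GMPPNP was incubated with compound (8-point 3-fold series from 5 mM DMSO stock) and then GST-cRAF for 15 min at room temperature. AlphaLISA detection followed after 60 min. IC50 came from a four-parameter fit of signal ratios against the DMSO control.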
# [2] = AGS cells, incubated 3 days, CTG, class symbols, read-out: AGS cell IC50
# [3] = AGS cells, incubated 3 days, CTG, numeric values, read-out: AGS cell IC50
SMILES,IC50 (AGS cell; [2]) [nM],AUC(0-t) (in vivo) [ng·h/mL],half-life (in vivo) [h],"AUC(0-t) ([1]; po, 10 mg/kg) [ng·h/mL]","half-life ([1]; po, 10 mg/kg) [h]",IC50 (KRAS^G12D/cRAF; class symbols) [µM],"AUC(0-t) ([1]; iv, 2 mg/kg) [ng·h/mL]","half-life ([1]; iv, 2 mg/kg) [h]","bioavailability ([1]; po, 10 mg/kg) [%]",IC50 (AGS cell; [3]) [nM],IC50 (KRAS^G12D/cRAF; numeric values) [µM],"IC50 (AGS cell; AGS, read-out: AGS cell IC50 (nM)) [nM]"
"[2H]C([2H])([2H])OCC12CCC(CN(c3nc(OC[C@@]45CCCN4C[C@H](F)C5)nc4c(F)c(-c5cc(O)c(F)c6ccc(F)c(C#C)c56)ncc34)C1)N2 (stereo partly drawn) [Example 14, 5-ethynyl-1,6-difluoro-4-(8-fluoro-2-(((2R,7aS)-2-fluorotetrahydro-1H-pyrrolizin-7a(5H)-yl)methoxy)-4-(1-((methoxy-d3)methyl)-3,8-diazabicyclo[3.2.1]octan-3-yl)pyrido[4,3-d]pyrimidin-7-yl)naphthalen-2-ol]",> 500,607,5.8,–,–,–,–,–,–,–,–,–
"[2H]C([2H])([2H])OCC12CCC(CN(c3nc(OC[C@@]45CCCN4C[C@H](F)C5)nc4c(F)c(-c5cc(O)cc6ccc(F)c(C#C)c56)ncc34)C1)N2 (stereo partly drawn) [Example 2, 5-ethynyl-6-fluoro-4-(8-fluoro-2-(((2R,7aS)-2-fluorotetrahydro-1H-pyrrolizin-7a(5H)-yl)methoxy)-4-(1-((methoxy-d3)methyl)-3,8-diazabicyclo [3.2.1]octan-3-yl)pyrido[4,3-d]pyrimidin-7-yl)naphthalen-2-ol]",< 50,–,–,602,8.3,0.05 to 0.5,–,–,–,–,–,–
"C#Cc1c(F)ccc2cc(O)cc(-c3ncc4c(N5C[C@H]6CC[C@@](C=C)(C5)N6)nc(OC[C@@]56CCCN5C[C@H](F)C6)nc4c3F)c12 [Example 57, 5-ethynyl-6-fluoro-4-(8-fluoro-2-(((2R,7aS)-2-fluorotetrahydro-1H-pyrrolizin-7a(5 H)-yl)methoxy)-4-((1R,5R)-1-vinyl-3,8-diazabicyclo[3.2.1]octan-3-yl)pyrido[4,3-d]pyrimidin-7-yl)naphthalen-2-ol]",–,–,–,1790,4.5,–,375,5.1,95,8.1,0.015,–
"C#Cc1c(F)ccc2cc(O)cc(-c3ncc4c(N5CC6CCC(COCC)(C5)N6)nc(OC[C@@]56CCCN5C[C@H](F)C6)nc4c3F)c12 (stereo partly drawn) [Example 32, 4-(4-(1-(ethoxymethyl)-3,8-diazabicyclo[3.2.1]octan-3-yl)-8-fluoro-2-(((2R,7aS)-2-fluorotetrahydro-1H-pyrrolizin-7a(511)-yl)methoxy)pyrido[4,3-d]pyrimidin-7-yl)-5-ethynyl-6-fluoronaphthalen-2-ol]",–,–,–,2200,4.6,0.05 to 0.5,–,–,–,–,–,< 50
"[2H]C([2H])([2H])OC[C@@]12CC[C@@H](CN(c3nc(OC[C@@]45CCCN4C[C@H](F)C5)nc4c(F)c(-c5cc(O)cc6ccc(F)c(C#C)c56)nc(OC)c34)C1)N2 [Example 50, 5-ethynyl-6-fluoro-4-(8-fluoro-2-(((2R,7aS)-2-fluorotetrahydro-1H-pyrrolizin-7a(5H)-yl)methoxy)-5-methoxy-4-((1R,5S)-1-((methoxy-d3)methyl)-3,8-diazabicyclo[3.2.1]octan-3-yl)pyrido[4,3-d]pyrimidin-7-yl)naphthalen-2-ol]",–,–,–,2660,6.4,–,1100,6.7,48,6.5,0.01,–
"C#Cc1c(F)ccc2cc(O)cc(-c3ncc4c(N5CC6CCC(C=C)(C5)N6)nc(OC[C@@]56CCCN5C[C@H](F)C6)nc4c3F)c12 (stereo partly drawn) [Example 5, 5-ethynyl-6-fluoro-4-(8-fluoro-2-(((2R,7aS)-2-fluorotetrahydro-1H-pyrrolizin-7a(5H)-yl)methoxy)-4-(1-vinyl-3,8-diazabicyclo[3.2.1]octan-3-yl)pyrido[4,3-d]pyrimidin-7-yl)naphthalen-2-ol]",–,–,–,489,6.3,–,–,–,–,15,0.072,–
"C#Cc1c(F)ccc2cc(O)cc(-c3ncc4c(N5CC6CCC(C(C)OC)(C5)N6)nc(OC[C@@]56CCCN5C[C@H](F)C6)nc4c3F)c12 (stereo partly drawn) [Example 12, 5-ethynyl-6-fluoro-4-(8-fluoro-2-(((2R,7aS)-2-fluorotetrahydro-1H-pyrrolizin-7a(5H)-yl)methoxy)-4-(1-(1-methoxyethyl)-3,8-diazabicyclo[3.2.1]octan-3-yl)pyrido[4,3-d]pyrimidin-7-yl) naphthalen-2-ol]",< 50,–,–,1740,7.2,0.05 to 0.5,–,–,–,–,–,–
"[2H]C([2H])([2H])[C@@]12CC[C@@H](CN(c3nc(OC[C@@]45CCCN4C[C@H](F)C5)nc4c(F)c(-c5cc(O)cc6ccc(F)c(C#C)c56)ncc34)C1)N2 [Example 43, 5-ethynyl-6-fluoro-4-(8-fluoro-2-(((2R,7aS)-2-fluorotetrahydro-1H-pyrrolizin-7a(5 H)-yl)methoxy)-4-((1R,5S)-1-(methyl-d3)-3,8-diazabicyclo[3.2.1]octan-3-yl)pyrido[4,3-d]pyrimidin-7-yl)naphthalen-2-ol]",–,–,–,733,15.7,–,214,5.4,5.8,1.5,0.0046,–
"C#Cc1c(F)ccc2cc(O)cc(-c3ncc4c(N5CC6CCC(C5)N6)nc(OC[C@@]56CCCN5C[C@H](F)C6)nc4c3F)c12 [Positive Compounds, reference compound]",–,–,–,40,1.6,–,337,3.1,2.4,–,–,–
"C#Cc1c(F)ccc2cc(O)cc(-c3ncc4c(N5C[C@@H]6CC[C@](CC)(C5)N6)nc(OC[C@@]56CCCN5C[C@H](F)C6)nc4c3F)c12 [Example 54, 4-(4-((1R,5S)-1-ethyl-3,8-diazabicyclo[3.2.1]octan-3-yl)-8-fluoro-2-(((2R,7aS)-2-fluorotetrahydro-1H-pyrrolizin-7a(5H)-yl)methoxy)pyrido[4,3-d]pyrimidin-7-yl)-5-eth ynyl-6-fluoronaphthalen-2-ol]",–,–,–,1160,9.8,–,460,7.7,51,7.3,0.055,–
"[2H]C([2H])([2H])C12CCC(CN(c3nc(OC[C@@]45CCCN4C[C@H](F)C5)nc4c(F)c(-c5cc(O)cc6ccc(F)c(C#C)c56)nc(OC)c34)C1)N2 (stereo partly drawn) [Example 38, 5-ethynyl-6-fluoro-4-(8-fluoro-2-(((2R,7aS)-2-fluorotetrahydro-1H-pyrrolizin-7a(5H)-yl)methoxy)-5-methoxy-4-(1-(methyl-d3)-3,8-diazabicyclo [3.2.1]octan-3-yl)pyrido [4,3-d]pyrimidin-7-yl)naphthalen-2-ol]",50 to 500,–,–,115,9.2,< 0.05,–,–,–,–,–,–
"C#Cc1c(F)ccc2cc(O)cc(-c3ncc4c(N5C[C@H]6CC[C@@](CCF)(C5)N6)nc(OC[C@@]56CCCN5C[C@H](F)C6)nc4c3F)c12 [Example 55, 5-ethynyl-6-fluoro-4-(8-fluoro-4-((1R,5R)-1-(2-fluoroethyl)-3,8-diazabicyclo[3.2.1]octan-3-yl)-2-(((2R,7aS)-2-fluorotetrahydro-1H-pyrrolizin-7a(5H)-yl)methoxy)pyrido[4,3-d]pyrimidin-7-yl)naphthalen-2-ol]",50 to 500,–,–,296,7.4,–,–,–,–,–,–,–
"[2H]C([2H])([2H])OC[C@]12CC[C@H](CN(c3nc(OC[C@@]45CCCN4C[C@H](F)C5)nc4c(F)c(-c5cc(O)cc6ccc(F)c(C#C)c56)nc(OCC)c34)C1)N2 [Example 51, 4-(5-ethoxy-8-fluoro-2-(((2R,7aS)-2-fluorotetrahydro-1H-pyrrolizin-7a(5H)-yl)methoxy)-4-((1S,5R)-1-((methoxy-d3)methyl)-3,8-diazabicyclo[3.2.1]octan-3-yl)pyrido[4,3-d]pyrimidin-7-yl)-5-ethynyl-6-fluoronaphthalen-2-ol]",–,–,–,1120,6.2,–,1570,5.4,28,–,–,–
